Test results as given in PMC9025555, “Chiral Recognition R- and RS- of New Antifungal: Complexation/Solubilization/Dissolution Thermodynamics and Permeability Assay” (Pharmaceutics, 2022).
Converted amounts (≈) assume the structure as drawn.

How the values were obtained:
[1] = Phase solubility study (shake-flask) in buffers with 2-HP-β-CD; details: for order of the solubility: compared with reported FCZ and L-173; for solubility at 3 days: thermodynamic from solid, solubility in pure buffer solution, pure buffer
Protocol: An excess amount of the substance was placed in the glass screw-capped vials with the solvent. The vials were stirred in an air thermostat for a certain period of time (a period of 3 days was estimated to be enough for reaching the equilibrium between the solid and the solvent). Then, the saturated solutions were kept in a thermostat in mild conditions no less than 12 h and thereafter centrifuged at a fixed temperature (Biofuge pico, Thermo Electron LED GmbH, Langenselbold, Germany) for 10 min at 12,000 rpm. […] The experimental results were reported as an average of at least three replicated experiments. Temperature uncertainty was ±0.1 K. The sensitivity of UV spectroscopic determinations was characterized by the values of the limit of detection (LOD)/limit of quantification (LOQ).

[2] = parameters: method as in doi:10.1016/j.molliq.2021.116535; details: cited from earlier work
[3] = cited from earlier work
in vitro = in vitro ADME; details: pH 7.4, pH 7.4; CD 0.01087 M; 310.15 K; read-out: Permeability Coefficient (Papp)
Protocol: Permeability coefficients of RS-186 and R-98 were measured through the PermeaPad barrier (PHABIOC, Germany, Espelkamp, www.permeapad.com, accessed on 20 May 2021) of an effective surface area of 0.785 cm^2 in a vertical type of Franz diffusion cell (PermeGear, Inc., Hellertown, PA, USA) with 7 mL volume. PermeaPad is a biomimetic membrane proposed by di Cagno and Bauer-Brandl for the fast screening of the permeability of the marketed drugs and drug-like compounds. In brief, the barrier was mounted between the donor and receptor chambers. The donor chamber was filled with a stock solution of the investigated substance in buffer solution at pH 2.0 or pH 7.4 and was stirred vigorously during the permeability experiment. The receptor compartment contained 1 mL of the respective fresh buffer. The system was thermostated at 310.15 ± 0.1 K. A probe of 0.5 mL was withdrawn every 30 min from the receptor chamber and replaced with an equal amount of the respective fresh buffer. The permeation process followed the reverse dialysis. The withdrawn samples were analyzed in 96-well UV black plate (Costar) via spectrophotometer (Spectramax 190; Molecular devices, Molecular Devices Corporation, California, CA, USA) at the appropriate wavelength. The permeation profiles were plotted as the amount of the permeated drug over the surface area ( dQ/A ) versus the time ( t ). The flux ( J ) was calculated as a slope of permeation profiles according to the equation:(6) J=dQ/A×dt
The apparent permeability coefficient ( Papp ) was calculated by normalizing the flux measured over the concentration of the drug in the donor compartment ( C0 ), as described by the equation:(7) Papp=J/Co
Each permeability experiment was repeated at least 3 times and the average value of Papp was determined.

OC(Cn1cncn1)(Cn1cncn1)c1ccc(F)cc1F [FCZ, fluconazole]
order of the solubility ([1]; pH 2.0): (FCZ) > (RS-186 ≥ R-98) > (L-173) | order of the solubility ([1]; pH 7.4): (FCZ) > (R-98 ≥ RS-186) >> (L-173) | Papp (PermeaPad) [2]: 19 ×10⁻⁶ cm/s

O=C(CN1C(=O)S/C(=C\c2ccc(Cl)cc2)C1=O)N1CCN(CC(O)(Cn2cncn2)c2ccc(F)cc2F)CC1 [L-173, (5Z)-5-[(4-chlorophenyl)methylidene]-3-(2-{4-[2-(2,4-difluorophenyl)-2-hydroxy-3-(1H-1,2,4-triazol-1-yl)propyl]piperazin-1-yl}-2-oxoethyl)-1,3-thiazolidine-2,4-dione, reference compound]
order of the solubility ([1]; pH 2.0): (FCZ) > (RS-186 ≥ R-98) > (L-173) | order of the solubility ([1]; pH 7.4): (FCZ) > (R-98 ≥ RS-186) >> (L-173)

CC(C)NCC(O)COc1cccc2ccccc12.Cl (stereo not shown) [propranolol HCl]
greater solubility of racemic compound as compared to enantiomer [3]: 3.7 fold

O=C1S/C(=C\c2ccc(Cl)cc2)C(=O)N1CC(O)CN1CCN(CC(O)(Cn2cncn2)c2ccc(F)cc2F)CC1 (stereo not shown) [R-98, (Z)-5-(4-chlorobenzylidene)-3-(3-(4-(2-(2,4-difluorophenyl)-2-hydroxy-3-(1H-1,2,4-triazol-1-yl)propyl)piperazin-1-yl)-2-hydroxypropyl)thiazolidine-2,4-dione]
solubility at 3 days ([1]; pH 2, aqueous buffer, pH 2.0): 620 µM (≈ 384 µg/mL) | solubility at 3 days ([1]; pH 7.4, aqueous buffer, pH 7.4): 18 µM (≈ 11.1 µg/mL) | Papp (in vitro): 1.19 ×10⁻⁶ cm/s

CC(C)Cc1ccc(C(C)C(=O)O)cc1 (stereo not shown) [ibuprofen]
greater solubility of enantiomer against the racemate ([3]; pH 1.5): twice
